Values quoted from earlier work as cited in patent publication US20240401031A1, “Platform Using iPSC-Derived Cardiomyocytes Carrying Gene Variants as Models of Cardiac Disease and Drug-Response” (SRI INTERNATIONAL, priority 2021, published 2024).

Details: source CredibleMeds

| SMILES | Risk (Torsade de Pointes) |
| --- | --- |
| Cc1cc(/C=C/C#N)cc(C)c1Nc1ccnc(Nc2ccc(C#N)cc2)n1 [Rilpivirine] | (PR) |
| CNCc1ccc(-c2[nH]c3cc(F)cc4c3c2CCNC4=O)cc1 [Rucaparib] | (PR) |
| CN1[C@@H]2CC[C@H]1C[C@@H](OC(=O)c1c[nH]c3ccccc13)C2 [Tropisetron] | (PR) |
| CN(C)CCC=C1c2ccccc2COc2ccccc21 [Doxepin] | (CR) |
| Cc1[nH]c2ccccc2c1CCNCc1ccc(/C=C/C(=O)NO)cc1 [Panobinostat] | (PR) |
| CC(CN(C)C)CN1c2ccccc2CCc2ccccc21 (centres unmarked) [Trimipramine] | (PR) |
| COc1ccccc1OCC(O)CN1CCN(CC(=O)Nc2c(C)cccc2C)CC1 (centres unmarked) [Ranolazine] | (CR) |
| COc1cc(C(C)=O)ccc1OCCCN1CCC(c2noc3cc(F)ccc23)CC1 [Iloperidone] | (PR) |
| CN1CC2c3ccccc3Oc3ccc(Cl)cc3C2C1 (centres unmarked) [Asenapine] | (PR) |
| COC(=O)CC[C@@H]1N=C(c2ccccn2)c2cc(Br)ccc2-n2c(C)cnc21 [Remimazolam] | (PR) |
| CC[C@@H](C(N)=O)N1CCCC1=O [Levetiracetam] | (PR) |
| CC[C@H]1OC(=O)[C@H](C)[C@@H](O[C@H]2C[C@@](C)(OC)[C@@H](O)[C@H](C)O2)[C@H](C)[C@@H](O[C@@H]2O[C@H](C)C[C@H](N(C)C)[C@H]2O)[C@](C)(O)C[C@@H](C)CN(C)[C@H](C)[C@@H](O)[C@]1(C)O [Azithromycin] | (KR) |
| COc1ccc2c(c1)N(C[C@H](C)CN(C)C)c1ccccc1S2 [Levomepromazine] | (KR) |
| OCCOCCN1CCN(C2=Nc3ccccc3Sc3ccccc32)CC1 [Quetiapine] | (CR) |
| CCN(CC)CCNC(=O)c1cc(S(C)(=O)=O)ccc1OC [Tiapride] | (PR) |
| CCCCCCCC(=O)N[C@H](CN1CCCC1)[C@H](O)c1ccc2c(c1)OCCO2 [Eliglustat] | (PR) |
| CN(C)CCCN1c2ccccc2Sc2ccc(Cl)cc21 [Chlorpromazine] | (KR) |
| C[C@@H]1C[C@H]2[C@@H]3C[C@H](F)C4=CC(=O)C=C[C@]4(C)[C@@]3(F)[C@@H](O)C[C@]2(C)[C@@]1(O)C(=O)SCF [Fluticasone] | (SR) |
| COc1cc2c(cc1OC)C1CC(=O)C(CC(C)C)CN1CC2 (centres unmarked) [Tetrabenazine] | (PR) |
| CN(C)CCCC1(c2ccc(F)cc2)OCc2cc(C#N)ccc21 (centres unmarked) [Citalopram] | (KR) |
| O=C1Nc2ccc(Cl)cc2[C@@](C#CC2CC2)(C(F)(F)F)O1 [Efavirenz] | (PR) |
| CC(CN(C)C)CN1c2ccccc2Sc2ccc(C#N)cc21 (centres unmarked) [Cyamemazine] | (PR) |
| Cc1cccc(Nc2ccncc2S(=O)(=O)NC(=O)NC(C)C)c1 [Torsemide] | (CR) |
| C=C[C@H]1C[N@@]2CC[C@H]1C[C@H]2[C@H](O)c1ccnc2ccc(OC)cc12 [Quinine] | (CR) |
| Cc1c(OCC(F)(F)F)ccnc1C[S+]([O-])c1nc2ccccc2[nH]1 (centres unmarked) [Lansoprazole] | (CR) |

| SMILES | Risk (Torsade de Pointes) |
| --- | --- |
| CN(C)C(=O)c1cc2cnc(Nc3ccc(N4CCNCC4)cn3)nc2n1C1CCCC1 [Ribociclib] | (PR) |
| CNC(=O)c1cc(Oc2ccc(NC(=O)Nc3ccc(Cl)c(C(F)(F)F)c3)cc2)ccn1 [Sorafenib] | (PR) |
| [2H]C([2H])([2H])Oc1cc2c(cc1OC([2H])([2H])[2H])C1CC(=O)C(CC(C)C)CN1CC2 (centres unmarked) [Deutetrabenazine] | (PR) |
| CNC[C@H](O)c1cccc(O)c1 [Phenylephrine] | (SR) |
| CC(Oc1c(Cl)cccc1Cl)C1=NCCN1 (centres unmarked) [Lofexidine] | (PR) |
| CC(CC(c1ccccc1)c1ccccc1)NC(C)(C)C (centres unmarked) [Terodiline] | (KR) |
| O=C1[C@@H]2[C@H]3CC[C@H](C3)[C@@H]2C(=O)N1C[C@@H]1CCCC[C@H]1CN1CCN(c2nsc3ccccc23)CC1 [Lurasidone] | (PR) |
| CC[C@H]1OC(=O)[C@H](C)[C@@H](O[C@H]2C[C@@](C)(OC)[C@@H](O)[C@H](C)O2)[C@H](C)[C@@H](O[C@@H]2O[C@H](C)C[C@H](N(C)C)[C@H]2O)[C@](C)(OC)C[C@@H](C)C(=O)[C@H](C)[C@@H](O)[C@]1(C)O [Clarithromycin] | (KR) |
| CNCC[C@@H](Oc1ccccc1C)c1ccccc1 [Atomoxetine] | (PR) |
| O=c1n(CCCN2CCN(c3cccc(Cl)c3)CC2)nc2ccccn12 [Trazodone] | (CR) |
| Cc1cc(C(C)(C)C)c(O)c(C)c1CC1=NCCN1 [Oxymetazoline] | (SR) |
| CCCCc1oc2ccc(NS(C)(=O)=O)cc2c1C(=O)c1ccc(OCCCN(CCCC)CCCC)cc1 [Dronedarone] | (KR) |
| COc1cc2c(cc1OC)[C@H]1C[C@@H](OC(=O)[C@@H](N)C(C)C)[C@H](CC(C)C)CN1CC2 [Valbenazine] | (PR) |
| CN(C)CCC[C@@]1(c2ccc(F)cc2)OCc2cc(C#N)ccc21 [Escitalopram] | (KR) |
| COc1cccc2c1C(=O)c1c(O)c3c(c(O)c1C2=O)C[C@@](O)(C(=O)CO)C[C@@H]3O[C@H]1C[C@H](N)[C@@H](O)[C@H](C)O1 [Epirubicin] | (PR) |
| CCN(CC)CCNC(=O)c1cc(Cl)c(N)cc1OC [Metoclopramide] | (CR) |
| CNCCC=C1c2ccccc2CCc2ccccc21 [Nortriptyline] | (PR) |
| [Cs] [Cesium] | (KR) |
| CC(C)NCC(O)c1ccc(O)c(O)c1 (centres unmarked) [Isoproterenol] | (SR) |
| COc1cc(N)c(Cl)cc1C(=O)NC1CCN(CCCOc2ccc(F)cc2)CC1OC (centres unmarked) [Cisapride] | (KR) |
| COC(=O)N[C@@H](C)CNc1nccc(-c2cn(C(C)C)nc2-c2cc(Cl)cc(NS(C)(=O)=O)c2F)n1 [Encorafenib] | (PR) |
| CN[C@H]1CC[C@@H](c2ccc(Cl)c(Cl)c2)c2ccccc21 [Sertraline] | (CR) |
| CNC[C@H](O)c1ccc(O)c(O)c1 [Epinephrine] | (SR) |
| OCCOCCN1CCN(C(c2ccccc2)c2ccc(Cl)cc2)CC1 (centres unmarked) [Hydroxyzine] | (CR) |
| CCCCc1oc2ccccc2c1C(=O)c1cc(I)c(OCCN(CC)CC)c(I)c1 [Amiodarone] | (KR) |

| SMILES | Risk (Torsade de Pointes) |
| --- | --- |
| CC1Cc2ccccc2N1NC(=O)c1ccc(Cl)c(S(N)(=O)=O)c1 (centres unmarked) [Indapamide] | (CR) |
| O=C(c1ccc(F)c(F)c1Nc1ccc(I)cc1F)N1CC(O)([C@@H]2CCCCN2)C1 [Cobimetinib] | (PR) |
| O=C(CCCCCCC(=O)Nc1ccccc1)NO [Vorinostat] | (PR) |
| O=C1NCCN1CCN1CCC(c2cn(-c3ccc(F)cc3)c3ccc(Cl)cc23)CC1 [Sertindole] | (KR) |
| [As] [Arsenic] | (KR) |
| CNCCC(Oc1ccc(C(F)(F)F)cc1)c1ccccc1 (centres unmarked) [Fluoxetine] | (CR) |
| Cc1cc(Nc2ncc(Cl)c(Nc3ccccc3S(=O)(=O)C(C)C)n2)c(OC(C)C)cc1C1CCNCC1 [Ceritinib] | (PR) |
| CN1CCN2c3ccccc3Cc3ccccc3C2C1 (centres unmarked) [Mianserin] | (PR) |
| COc1c(N2CCNC(C)C2)c(F)cc2c(=O)c(C(=O)O)cn(C3CC3)c12 (centres unmarked) [Gatifloxacin] | (KR) |
| CC[C@@H]([C@H](C)O)n1ncn(-c2ccc(N3CCN(c4ccc(OC[C@@H]5CO[C@@](Cn6cncn6)(c6ccc(F)cc6F)C5)cc4)CC3)cc2)c1=O [Posaconazole] | (CR) |
| C=C/C=C/C[C@@H](C)[C@@H](O)[C@H]1C(=O)N[C@@H](CC)C(=O)N(C)CC(=O)N(C)[C@@H](CC(C)C)C(=O)N[C@@H](C(C)C)C(=O)N(C)[C@@H](CC(C)C)C(=O)N[C@@H](C)C(=O)N[C@H](C)C(=O)N(C)[C@@H](CC(C)C)C(=O)N(C)[C@@H](CC(C)C)C(=O)N(C)[C@@H](C(C)C)C(=O)N1C [Voclosporin] | (PR) |
| CCN(c1cc(-c2ccc(CN3CCOCC3)cc2)cc(C(=O)NCc2c(C)cc(C)[nH]c2=O)c1C)C1CCOCC1 [Tazemetostat] | (PR) |
| CC[C@H]1CN2CC[C@H]1C[C@@H]2[C@@H](O)c1ccnc2ccc(OC)cc12 [Hydroquinidine] | (KR) |
| C[C@@H](Cc1ccccc1)NC(=O)[C@@H](N)CCCCN [Lisdexamfetamine] | (SR) |
| COC(=O)N[C@H](C(=O)N[C@@H](Cc1ccccc1)[C@@H](O)CN(Cc1ccc(-c2ccccn2)cc1)NC(=O)[C@@H](NC(=O)OC)C(C)(C)C)C(C)(C)C [Atazanavir] | (CR) |
| CC(N)C(O)c1ccccc1 (centres unmarked) [Phenylpropanolamine] | (SR) |
| C=C[C@]1(C)C[C@@H](OC(=O)CS[C@@H]2CC[C@@H](N)C[C@H]2O)[C@]2(C)[C@H](C)CC[C@]3(CCC(=O)[C@H]32)[C@@H](C)[C@@H]1O [Lefamulin] | (PR) |
| CCNC(C)Cc1cccc(C(F)(F)F)c1 (centres unmarked) [Fenfluramine] | (SR) |
| C=C[C@H]1C[N@@]2CC[C@H]1C[C@@H]2[C@@H](O)c1ccnc2ccc(OC)cc12 [Quinidine] | (KR) |
| CCC[C@H](NC(=O)[C@@H]1[C@H]2CCC[C@H]2CN1C(=O)[C@@H](NC(=O)[C@@H](NC(=O)c1cnccn1)C1CCCCC1)C(C)(C)C)C(=O)C(=O)NC1CC1 [Telaprevir] | (CR) |
| Cc1nc(Nc2ncc(C(=O)Nc3c(C)cccc3Cl)s2)cc(N2CCN(CCO)CC2)n1 [Dasatinib] | (PR) |
| CN1CCc2cccc3c2[C@H]1Cc1ccc(O)c(O)c1-3 [Apomorphine] | (PR) |
| CCC/N=C1\S/C(=C\c2ccc(OC[C@H](O)CO)c(Cl)c2)C(=O)N1c1ccccc1C [Ponesimod] | (PR) |
| CNC(=O)c1ccc(N2C(=S)N(c3cnc(C#N)c(C(F)(F)F)c3)C(=O)C23CCC3)cc1F [Apalutamide] | (PR) |
